Test results as given in patent US11793746B2, “Intense skin hydration systems and methods” (priority 2020, dated 2023).

Legend:
[1] = tested on: collagen I and collagen III; test: Collagen deposition by light and electron microscopy; settings: 20,000×; vs untreated control
Procedure: Skin tissue treated with GC-100 in the absence of ascorbic acid was prepared to illustrate collagen deposition. Tissue samples were first pretreated with Bouin's solution to intensify subsequent staining results. Samples were then treated with Mason's trichrome stain, which combines the plasma stain (chromotrope 2R) and connective tissue fiber stain)aniline blue) in a phosphotungstic acid solution to which glacial acetic acid was added. The collagen absorbs the tungsten ion, which may be visualized due to the complexed aniline blue.
Staining for specific collagen types was achieved using specific standardized indirect immunoperoxidase attains for collagen I and III, respectively.
Collagen deposition assessments are based on the visual interpretation of two endpoints: Collagen I and Collagen III. An untreated control and a tissue sample treated with GC-100 were stained to reveal collagen I. A similar method of comparison was used to illustrate collagen III deposition in control and treated tissue.
Tissues used for light microscopy were place in Karnovsky's fixative for additional evaluation using electron microscopy standard technique. Magnification power of 20,000× was used for visualization of the lower dermis.

[2] = tested on: hepatocytes; test: Cellular O2 consumption measured with an oxygraph; assay type: cell-based; settings: 3% GC-100
Description: Increased cellular respiration may be equated with more efficient use of cellular reserves (e.g., polysaccharides & triglycerides) and improved elimination of metabolic waste. The end result of enhanced cellular respiration is cellular regeneration and restoration of the organ system being evaluated. The activation of cellular respiration can be evaluated using an oxygraph. Since the oxygraph electrode response is directly proportional to the concentration of dissolved O2 in the test media, a measure of cellular O2 consumption can be calculated to yield information on changes in cellular respiration. […] FIG. 4 is a graph showing hepatocyte oxygen consumption in the presence of GC-100 at various concentrations.

[3] = tested on: human diploid fibroblasts; test: Fibroblast proliferation (MTT) in suboptimal nutritional medium; assay type: cell-based; settings: for Cells/well (×10^3): control 15
Description: This Example quantifies the biostimulating activity of GC-100 on human diploid fibroblasts in a suboptimal nutritional environment.
Cellular proliferation, or mitotic activity, will be assessed using an MTT assay. MTT added to the microtiter wells is metabolized by succinate dehydrogenase of the citric acid cycle. Since the metabolism of MTT is dependent on mitochondrial activity, the amount of metabolite produced can be correlated with the number of viable cells present per well. The metabolite concentration is measured via spectrophotometry, with the absorption value converted to an absolute number that describes cellular growth based on standardized curves. The results are shown in Table 2 and FIG. 5, which is a graph showing fibroblast proliferation in a suboptimal nutritional environment.

[4] = tested on: human skin analog, Skin^2; test: MTT cytotoxicity assay; assay type: cell-based; settings: cytotoxic = levels below 80% of untreated control
Description: Preclinical studies used a three-dimensional metabolically and mitotically active in vitro human skin analog, Skin^2™. This human skin substrate consists of neonatal foreskin fibroblasts that secrete a functionally active extracellular matrix grown on a medical-grade nylon mesh cocultured with human neonatal foreskin keratinocytes that differentiate into a multilayered epidermis.
This Example tested cellular viability and measured cell respiration in vitro in response to the application of GC-100 preparations.
The toxicity of a substance can be quantified by sustained metabolic activity of the cell in the presence of test substance. The integrity of cellular metabolism can be evaluated using the MTT Coloration Assay, which relies on the metabolism of 3-[4,5-dimethylthiazol-2-yl]-2,5-diphenyl tetrazolium bromide by succinate dehydrogenase of the citric acid cycle. Since the metabolism of MTT is dependent on mitochondrial activity, the amount of metabolite produced can be correlated with the number of viable cells present per well. The metabolite concentration is measured via spectrophotometry, with the absorption value converted to an absolute number that describes cellular growth.

H-Lys-Pro-NH2 [GC-100]
collagen fibers in lower dermis, electron microscopy [1]: collagen fiber density is increased
average increase in O2 consumption [2]: 282%±30
% increase O2 consumption ([2]; 57 mg cells): 310%
Final consumption, ha ([2]; 57 mg cells): 1.259 nm O2/min/mg cells
% increase O2 consumption ([2]; 58 mg cells): 260%
Final consumption, ha ([2]; 58 mg cells): 1.003 nm O2/min/mg cells
% increase O2 consumption ([2]; 60 mg cells): 240%
Final consumption, ha ([2]; 60 mg cells): 0.865 nm O2/min/mg cells
% increase O2 consumption ([2]; 63 mg cells): 280%
Final consumption, ha ([2]; 63 mg cells): 0.879 nm O2/min/mg cells
% increase O2 consumption ([2]; 64 mg cells): 320%
Final consumption, ha ([2]; 64 mg cells): 0.954 nm O2/min/mg cells
Cells/well (×10^3) ([3]; 0.1% GC-100): 17 ×10^3 cells/well
Cells/well (×10^3) ([3]; 0.5% GC-100): 20 ×10^3 cells/well
Cells/well (×10^3) ([3]; 1.0% GC-100): 21 ×10^3 cells/well
Cells/well (×10^3) ([3]; 5% GC-100): 28 ×10^3 cells/well
Cells/well (×10^3) ([3]; 10% GC-100): 24 ×10^3 cells/well
Cumulative fibroblast proliferation (mitosis) ([3]; in the presence of GC-100): 83%
cytotoxic response (MTT) [4]: does not elicit a cytotoxic response
